Reference: patent US12594261B2, “Use of heterocyclic derivatives with cardiomyocyte proliferation activity for treatment of heart diseases” (SHANGHAI EAST HOSPITAL (EAST HOSPITAL, TONGJI UNIVERSITY …, priority 2019, dated 2026)

Test system: neonatal rat ventricular myocytes (NRVMs)
Test: Myocyte proliferation assay (EdU) in neonatal rat ventricular myocytes
Assay type: cell-based
Details: Rattus norvegicus, Ventricular myocyte, growth relative to blank myocyte growth without compound added; for activation at 1 µM: 1 uM compound; for activation at 3 µM: 3 uM compound; for activation at 10 µM: 10 uM compound
Description: 1. Isolation of and Culture Neonatal Rat Ventricular Myocytes (NRVMs)
Ventricles from neonatal rats were separated from the atria, cut into small pieces (about 2×2 mm^2) and then dissociated in Ca^2+-free HBSS containing 0.125 mg ml-1 trypsin (Gibco), 10 μg ml-1 DNase II (Sigma) and 0.1 mg ml-1 collagenase type IV (Sigma). The digestion was carried out under constant stirring at 37° C. for 5 min. The supernatant was collected with FBS (Gibco) after each digestion period. After digestion, the collected supernatant was centrifuged at 1000 g for 10 min at room temperature, and then cell pellets were resuspended in DMEM (Gibco) supplemented with 10% FBS and with 100 uM 5-bromo-2′-deoxyuridine (Sigma). The resuspended cells were passed through a cell strainer ([…], BD Falcon) and seeded onto 100-mm plastic dishes for 2 h at 37° C. in a 5% CO2 to remove fibroblasts, the supernatant was then collected and plated onto 1% gelatin (Sigma)-coated dishes. 24 h after the seeding, the medium was changed to DMEM (Gibco) containing 2% FBS (Gibco), 1% insulin-transferrin-selenium (ITS; Gibco), 1% Penicillin-Streptomycin (Gibco). After 24 hours of low serum culture, remove the medium with DMEM (Gibco) containing 6% FBS (Gibco), 1% insulin-transferrin-selenium (ITS; Gibco), 1% Penicillin-Streptomycin (Gibco), different concentrations of compounds (the compounds were pre-diluted in the medium and the drug concentration was 10 uM, 3 uM, 1 uM, fully mixed). After 36 h add Edu substrate (Invitrogen) according to the manufacturer's guidelines, and then after 12 h cell can be used.
2.1. Immobilization: Remove the medium and fix the cells with […] in 200 ul (whichever is covered) for 15 min and wash the cells twice with 500 ul of PBS for 5 min each time.
2.2. Broken membrane: Add 200 ul of 0.3% Triton-X 100 (diluted in PBS) to each well, incubate for 10-15 min at room temperature (the time should not be too long), and wash the cells twice with 500 ul of PBS for 5 min each time.
2.3. Blocking: Add 200 ul of 10% normal goat serum (diluted with 0.1% PBST) to each well, incubate for 1 h at room temperature, and wash twice with 500 ul of 0.1% PBST for 5 min each time.
2.4. Primary antibody: dilute the primary antibody (abcam, ab8295) to blocking solution at a ratio of 1:200, add 100 ul per well, incubate for 1 h at room temperature (may be slightly longer than 2-3 h), wash the cells twice with 500 ul 0.1% PBST for 5 min each time.
2.5. Secondary antibody: Dilute the fluorescently labeled secondary antibody (abcam, ab150117) into blocking solution at a ratio of 1:200, add 100 ul per well, incubate for 1 h at room temperature (the time should not be too long), wash the cells twice with 0.1% PBST for 5 min each time, pay attention to the whole process. Protected from light.
2.6. Edu staining (Invitrogen C10338)
2.6.1 Prepare Click-iT® reaction cocktail according to Table 3. It was important to add the ingredients in the order listed in the table; otherwise, the reaction would not proceed optimally. Use the Click-iT® reaction cocktail within 15 minutes of preparation.
2.6.2 Add 0.1 mL of Click-iT® reaction cocktail to each well containing a coverslip. Rock the plate briefly to ensure that the reaction cocktail is distributed evenly over the coverslip.
2.6.3 Incubate the plate for 30 minutes at room temperature, protected from light.
2.6.4 Remove the reaction cocktail, then wash the cells twice with 0.1% PBST for 5 min each time.
2.7. DAPI staining: DAPI stain was diluted to PBS at a ratio of 1:1000, 100 ul per well, incubated for 30 min at room temperature, and the cells were washed twice with PBS for 5 min each.
We used Molecular Devices' Image Xpress Micro Confocal for high-throughput photo and data analysis.

| SMILES | activation at 1 µM [%] | activation at 3 µM [%] | activation at 10 µM [%] |
| --- | --- | --- | --- |
| CN1C(=O)/C(=C/c2ccc3c(c2)OCO3)N=C1N [TJU-B057, (4Z)-2-amino-4-[(2H-1,3-benzodioxol-5-yl)methylidene]-1-methyl-4,5-dihydro-1H-imidazol-5-one] | 10 to 50 | < 10 | < 10 |
| O=C1NC(NCc2ccccc2)=N/C1=C\c1ccc2c(c1)OCO2 [TJU-B019, (4Z)-4-[(2H-1,3-benzodioxol-5-yl)methylidene]-2-(benzylamino)-4,5-dihydro-1H-imidazol-5-one] | < 10 | < 10 | > 50 |
| O=C1NC(NCCN2CCOCC2)=N/C1=C\c1ccc2c(c1)OCCO2 [TJU-B026, (4Z)-4-[(2,3-dihydro-1,4-benzodioxin-6-yl)methylidene]-2-{[2-(morpholin-4-yl)ethyl]amino}-4,5-dihydro-1H-imidazol-5-one] | 10 to 50 | < 10 | > 50 |
| NC1=N/C(=C\c2ccc3c(c2)OC(F)(F)O3)C(=O)N1 [TJU-B049, (4Z)-2-amino-4-[(2,2-difluoro-2H-1,3-benzodioxol-5-yl)methylidene]-4,5-dihydro-1H-imidazol-5-one] | 10 to 50 | < 10 | 10 to 50 |
| Cc1ccc(NC2=N/C(=C\c3ccc4c(c3)OCO4)C(=O)N2)cc1 [TJU-B110, (4Z)-4-[(2H-1,3-benzodioxol-5-yl)methylidene]-2-[(4-methylphenyl)amino]-4,5-dihydro-1H-imidazol-5-one] | 10 to 50 | < 10 | < 10 |
| O=C1NC(NCCN2CCOCC2)=N/C1=C\c1ccc2c(c1)OCO2 [TJU-B004, (4Z)-4-[(2H-1,3-benzodioxol-5-yl)methylidene]-2-{[2-(morpholin-4-yl)ethyl]amino}-4,5-dihydro-1H-imidazol-5-one] | < 10 | 10 to 50 | > 50 |
| COc1ccc(NC2=N/C(=C\c3ccc4c(c3)OCCO4)C(=O)N2)cc1 [TJU-B006, (4Z)-4-[(2,3-dihydro-1,4-benzodioxin-6-yl)methylidene]-2-[(4-methoxyphenyl)amino]-4,5-dihydro-1H-imidazol-5-one] | 10 to 50 | 10 to 50 | > 50 |
| NC1=N/C(=C\c2cc3c(cc2Cl)OCO3)C(=O)N1 [TJU-B064, (4Z)-2-amino-4-[(6-chloro-2H-1,3-benzodioxol-5-yl)methylidene]-4,5-dihydro-1H-imidazol-5-one] | < 10 | < 10 | < 10 |
| COc1ccc(/C=C2\N=C(N)N(C)C2=O)cc1OC [TJU-B070, (4Z)-2-amino-4-[(3,4-dimethoxyphenyl)methylidene]-1-methyl-4,5-dihydro-1H-imidazol-5-one] | < 10 | < 10 | < 10 |
| CC(C)NC1=N/C(=C\c2ccc3c(c2)OCO3)C(=O)N1C [TJU-B016, (4Z)-4-[(2H-1,3-benzodioxol-5-yl)methylidene]-1-methyl-2-[(propan-2-yl)amino]-4,5-dihydro-1H-imidazol-5-one] | < 10 | 10 to 50 | > 50 |
| O=C1NC(NC2CCCCC2)=N/C1=C\c1ccc2c(c1)OCO2 [TJU-B253, (4Z)-4-[(2H-1,3-benzodioxol-5-yl)methylidene]-2-(cyclohexylamino)-4,5-dihydro-1H-imidazol-5-one] | < 10 | < 10 | < 10 |
| O=C1NC(Nc2cccnc2)=N/C1=C\c1ccc2c(c1)OCO2 [TJU-B031, (4Z)-4-[(2H-1,3-benzodioxol-5-yl)methylidene]-2-[(pyridin-3-yl)amino]-4,5-dihydro-1H-imidazol-5-one] | < 10 | < 10 | 10 to 50 |
| C/C(=C1/N=C(Nc2ccccc2)NC1=O)c1ccc2c(c1)OCO2 [TJU-B013, (4Z)-4-[1-(2H-1,3-benzodioxol-5-yl)ethylidene]-2-(phenylamino)-4,5-dihydro-1H-imidazol-5-one] | < 10 | 10 to 50 | > 50 |
| CCNC1=N/C(=C\c2ccc3c(c2)OCO3)C(=O)N1 [TJU-B040, (4Z)-4-[(2H-1,3-benzodioxol-5-yl)methylidene]-2-(ethylamino)-4,5-dihydro-1H-imidazol-5-one] | 10 to 50 | 10 to 50 | 10 to 50 |
| Nc1ccc(NC2=N/C(=C\c3ccc4c(c3)OCO4)C(=O)N2)cc1 [TJU-B021, (4Z)-2-[(4-aminophenyl)amino]-4-[(2H-1,3-benzodioxol-5-yl)methylidene]-4,5-dihydro-1H-imidazol-5-one] | < 10 | < 10 | > 50 |
| O=C1NC(Nc2ccccn2)=N/C1=C\c1ccc2c(c1)OCO2 [TJU-B097, (4Z)-4-[(2H-1,3-benzodioxol-5-yl)methylidene]-2-[(pyridin-2-yl)amino]-4,5-dihydro-1H-imidazol-5-one] | < 10 | < 10 | < 10 |
| COc1cc(/C=C2\N=C(Nc3ccccc3)NC2=O)cc2c1OCO2 [TJU-B051, (4Z)-4-[(7-methoxy-2H-1,3-benzodioxol-5-yl)methylidene]-2-(phenylamino)-4,5-dihydro-1H-imidazol-5-one] | < 10 | < 10 | 10 to 50 |
| O=C1NC(Nc2ccccc2)=N/C1=C\c1cc2c(cc1Cl)OCO2 [TJU-B011, (4Z)-4-[(6-chloro-2H-1,3-benzodioxol-5-yl)methylidene]-2-(phenylamino)-4,5-dihydro-1H-imidazol-5-one] | 10 to 50 | 10 to 50 | > 50 |
| CN1C(=O)/C(=C/c2ccc3c(c2)OCO3)N=C1Nc1ccc2c(c1)OCO2 [TJU-B088, (4Z)-2-[(2H-1,3-benzodioxol-5-yl)amino]-4-[(2H-1,3-benzodioxol-5-yl)methylidene]-1-methyl-4,5-dihydro-1H-imidazol-5-one] | 10 to 50 | < 10 | < 10 |
| O=C1NC(c2ccccc2)=N/C1=C\c1ccc2c(c1)OC(F)(F)O2 [TJU-B063, (4Z)-4-[(2,2-difluoro-2H-1,3-benzodioxol-5-yl)methylidene]-2-phenyl-4,5-dihydro-1H-imidazol-5-one] | < 10 | > 50 | < 10 |
| CN1C(=O)/C(=C/c2ccccc2)N=C1N [TJU-B045, (4Z)-2-amino-1-methyl-4-(phenylmethylidene)-4,5-dihydro-1H-imidazol-5-one] | < 10 | < 10 | 10 to 50 |
| COc1ccc(/C=C2\N=C(Nc3ccccc3)NC2=O)cc1OC [TJU-B085, (4Z)-4-[(3,4-dimethoxyphenyl)methylidene]-2-(phenylamino)-4,5-dihydro-1H-imidazol-5-one] | < 10 | < 10 | < 10 |
| CNC1=N/C(=C\c2ccc3c(c2)OCO3)C(=O)N1 [TJU-B033, (4Z)-4-[(2H-1,3-benzodioxol-5-yl)methylidene]-2-(methylamino)-4,5-dihydro-1H-imidazol-5-one] | < 10 | < 10 | 10 to 50 |
